This note sets out measurements from patent publication US20250129067A1 (Progentos Therapeutics, Inc., priority 2021, published 2025).

The target of one series is PDGFRα (Homo sapiens (Human), UniProt P16234). As to the kind of experiment: PDGFRα kinase enzyme assay (Promega PDGFRα Kinase Enzyme System, ADP-Glo). In kind it is biochemical. As to conditions: 11-point dose response, 10,000 nM to 0.169 nM; 150 uM ATP; BLQ = below limit of quantitation; read-out: IC50 Values on PDGFRα Kinase Inhibition, IC50. An outline of the steps:
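Read-out was ADP-Glo: remaining ATP depleted, ADP converted to luminescence and compared with a standard curve.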
For orientation: In ADP-Glo the light output rises with the ADP produced.

The subject of series [1] is Oligodendrocyte progenitor cells (OPCs). As to the kind of experiment: In vitro OPC differentiation assay, GPR17 expression (immunocytochemistry). The following applies: 3 μM (10× concentration, final 0.3 μM); 72 hours; fold change over vehicle.

Sequence of PDGFRα (P16234 24-1089): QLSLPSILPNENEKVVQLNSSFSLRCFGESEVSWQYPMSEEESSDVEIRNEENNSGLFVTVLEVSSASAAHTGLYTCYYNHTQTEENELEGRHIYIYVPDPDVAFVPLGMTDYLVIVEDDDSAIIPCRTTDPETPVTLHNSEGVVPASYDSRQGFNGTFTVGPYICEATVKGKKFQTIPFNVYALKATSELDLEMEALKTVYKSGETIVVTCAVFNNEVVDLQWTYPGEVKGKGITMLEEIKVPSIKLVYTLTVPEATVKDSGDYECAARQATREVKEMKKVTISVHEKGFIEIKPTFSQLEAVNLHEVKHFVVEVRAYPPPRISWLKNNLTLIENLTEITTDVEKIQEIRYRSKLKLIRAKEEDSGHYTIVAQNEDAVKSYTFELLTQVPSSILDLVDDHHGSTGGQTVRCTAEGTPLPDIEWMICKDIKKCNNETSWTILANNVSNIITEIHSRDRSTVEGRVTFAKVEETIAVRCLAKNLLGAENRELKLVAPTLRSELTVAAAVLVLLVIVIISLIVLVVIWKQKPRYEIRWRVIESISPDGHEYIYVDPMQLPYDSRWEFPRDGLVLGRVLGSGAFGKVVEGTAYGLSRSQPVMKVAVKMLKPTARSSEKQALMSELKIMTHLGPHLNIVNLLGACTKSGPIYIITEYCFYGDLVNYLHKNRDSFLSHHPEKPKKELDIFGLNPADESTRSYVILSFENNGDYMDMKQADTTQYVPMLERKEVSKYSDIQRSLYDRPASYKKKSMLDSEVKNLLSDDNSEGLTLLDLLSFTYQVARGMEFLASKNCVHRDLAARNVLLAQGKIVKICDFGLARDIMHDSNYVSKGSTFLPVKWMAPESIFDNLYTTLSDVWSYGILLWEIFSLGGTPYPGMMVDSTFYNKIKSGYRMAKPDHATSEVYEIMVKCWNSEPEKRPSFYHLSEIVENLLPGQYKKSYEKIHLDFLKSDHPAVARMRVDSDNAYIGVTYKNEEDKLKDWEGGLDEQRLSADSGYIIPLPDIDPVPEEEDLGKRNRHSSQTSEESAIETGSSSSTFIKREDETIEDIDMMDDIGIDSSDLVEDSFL

As for `Cn1cc(-c2ccc3c(N4CCN(S(=O)(=O)CCc5ccccc5)CC4)cnn3c2)cn1` [Compound 160, 6-(1-methyl-1H-pyrazol-4-yl)-3-(4-(phenethylsulfonyl)piperazin-1-yl)pyrazolo[1,5-a]pyridine], the IC50 (as a rule, the concentration that gives 50% inhibition) at PDGFRα is 9680 nM. Also, the “GPR17 Fold Induction (Over Vehicle; 3 μM)” value (“GPR17 Fold Induction” for short) in series [1] turned out to be 2.80.

In the case of `CN(Cc1ccccc1)C(=O)N1CCN(c2cnn3cc(-c4cnn(C)c4)ccc23)CC1` [Compound 162, N-benzyl-N-methyl-4-(6-(1-methyl-1H-pyrazol-4-yl)pyrazolo[1,5-a]pyridin-3-yl)piperazine-1-carboxamide], on PDGFRα, the IC50 was 1480 nM. In addition, the “GPR17 Fold Induction” value in series [1] came out at 2.90.

Take `Cn1cc(-c2ccc3c(N4CCN(c5ncc(CC(O)c6ccccc6)cn5)CC4)cnn3c2)cn1` (stereo not shown) [Compound 164, 2-(2-(4-(6-(1-methyl-1H-pyrazol-4-yl)pyrazolo[1,5-a]pyridin-3-yl)piperazin-1-yl)pyrimidin-5-yl)-1-phenylethan-1-ol]: the concentration for half-maximal inhibition (IC50) on PDGFRα was 784 nM. Also, the “GPR17 Fold Induction” value in series [1] amounted to 5.94.

For the compound `Cn1cc(-c2ccc3c(N4CCN(c5ncc(CCC(O)c6ccccc6)cn5)CC4)cnn3c2)cn1` (stereo not shown) [Compound 165, 3-(2-(4-(6-(1-methyl-1H-pyrazol-4-yl)pyrazolo[1,5-a]pyridin-3-yl)piperazin-1-yl)pyrimidin-5-yl)-1-phenylpropan-1-ol], the IC50 at PDGFRα stood at 686 nM. Besides, the “GPR17 Fold Induction” value in series [1] amounted to 18.42.

As for `Cn1cc(-c2ccc3c(N4CCN(c5ncc(Oc6ccccc6)cn5)CC4)cnn3c2)cn1` [Compound 166, 6-(1-methyl-1H-pyrazol-4-yl)-3-(4-(5-phenoxypyrimidin-2-yl)piperazin-1-yl)pyrazolo[1,5-a]pyridine], on PDGFRα, the IC50 was 3570 nM. The “GPR17 Fold Induction” value in series [1] came out at 6.36.

With `CCCCC(O)c1cnc(N2CCN(c3cnn4cc(-c5cnn(C)c5)ccc34)CC2)nc1` (stereo not shown) [Compound 168, 1-(2-(4-(6-(1-methyl-1H-pyrazol-4-yl)pyrazolo[1,5-a]pyridin-3-yl)piperazin-1-yl)pyrimidin-5-yl)pentan-1-ol], on PDGFRα, the IC50 was determined as 105 nM. Besides, in series [1], the “GPR17 Fold Induction” value is 6.43.

`Cn1cc(-c2ccc3c(N4CCN(c5ncc(Cc6ccoc6)cn5)CC4)cnn3c2)cn1` [Compound 169, 3-(4-(5-(furan-3-ylmethyl)pyrimidin-2-yl)piperazin-1-yl)-6-(1-methyl-1H-pyrazol-4-yl)pyrazolo[1,5-a]pyridine]: at PDGFRα, the IC50 was 825 nM. For the same compound, the “GPR17 Fold Induction” value in series [1] was found to be 9.79.

With `Cn1cc(-c2ccc3c(N4CCN(c5ncc(Cc6ncco6)cn5)CC4)cnn3c2)cn1` [Compound 170, 2-((2-(4-(6-(1-methyl-1H-pyrazol-4-yl)pyrazolo[1,5-a]pyridin-3-yl)piperazin-1-yl)pyrimidin-5-yl)methyl)oxazole], the IC50 on PDGFRα is 2380 nM. The “GPR17 Fold Induction” value in series [1] turned out to be 3.96.

On to `Cn1cc(-c2ccc3c(N4CCN(c5ncc(Cc6cocn6)cn5)CC4)cnn3c2)cn1` [Compound 171, 4-((2-(4-(6-(1-methyl-1H-pyrazol-4-yl)pyrazolo[1,5-a]pyridin-3-yl)piperazin-1-yl)pyrimidin-5-yl)methyl)oxazole], for which the IC50 on PDGFRα is above 10000 nM. Also, in series [1], the “GPR17 Fold Induction” value is 5.33.

On to `Cn1cc(-c2ccc3c(N4CCN(c5ncc(Cc6cscn6)cn5)CC4)cnn3c2)cn1` [Compound 172, 4-((2-(4-(6-(1-methyl-1H-pyrazol-4-yl)pyrazolo[1,5-a]pyridin-3-yl)piperazin-1-yl)pyrimidin-5-yl)methyl)thiazole], for which the IC50 on PDGFRα is 710 nM. For the same compound, the “GPR17 Fold Induction” value in series [1] was 4.90.

For the compound `Cn1cc(-c2ccc3c(N4CCN(c5ncc(CN6CCc7ccccc76)cn5)CC4)cnn3c2)cn1` [Compound 174, 3-(4-(5-(indolin-1-ylmethyl)pyrimidin-2-yl)piperazin-1-yl)-6-(1-methyl-1H-pyrazol-4-yl)pyrazolo[1,5-a]pyridine], the IC50 on PDGFRα worked out at 306 nM. Further, the “GPR17 Fold Induction” value in series [1] is given as 6.67.

On to `Cn1cc(-c2ccc3c(N4CCN(c5ncc(Cc6nnco6)cn5)CC4)cnn3c2)cn1` [Compound 180, 2-((2-(4-(6-(1-methyl-1H-pyrazol-4-yl)pyrazolo[1,5-a]pyridin-3-yl)piperazin-1-yl)pyrimidin-5-yl)methyl)-1,3,4-oxadiazole], for which, at PDGFRα, the IC50 was 4330 nM. Also, in series [1], the “GPR17 Fold Induction” value was 4.05.

Regarding `Cn1cc(-c2ccc3c(N4CCN(c5ncc(Cc6nccs6)cn5)CC4)cnn3c2)cn1` [Compound 182, 2-((2-(4-(6-(1-methyl-1H-pyrazol-4-yl)pyrazolo[1,5-a]pyridin-3-yl)piperazin-1-yl)pyrimidin-5-yl)methyl) thiazole], the IC50 on PDGFRα is 6990 nM. In addition, the “GPR17 Fold Induction” value in series [1] was determined as 13.16.

Turning to `Cn1cc(-c2ccc3c(N4CCN(c5ncc(CCCc6ccccc6)cn5)CC4)cnn3c2)cn1` [Compound 183, 6-(1-methyl-1H-pyrazol-4-yl)-3-(4-(5-(3-phenylpropyl)pyrimidin-2-yl)piperazin-1-yl)pyrazolo[1,5-a]pyridine], the IC50 on PDGFRα is 815 nM. In addition, the “GPR17 Fold Induction” value in series [1] stood at 5.74.

In the case of `Cn1cc(-c2ccc3c(N4CCN(c5ncc(CC6CCCOC6)cn5)CC4)cnn3c2)cn1` (stereo not shown) [Compound 185, 6-(1-methyl-1H-pyrazol-4-yl)-3-(4-(5-((tetrahydro-2H-pyran-3-yl)methyl)pyrimidin-2-yl)piperazin-1-yl)pyrazolo[1,5-a]pyridine], the IC50 at PDGFRα came out at 510 nM. The “GPR17 Fold Induction” value in series [1] is 12.67.

On to `Cn1cc(-c2ccc3c(N4CCN(c5ncc(S(=O)(=O)c6ccccc6)cn5)CC4)cnn3c2)cn1` [Compound 186, 6-(1-methyl-1H-pyrazol-4-yl)-3-(4-(5-(phenylsulfonyl)pyrimidin-2-yl)piperazin-1-yl)pyrazolo[1,5-a]pyridine], for which the IC50 at PDGFRα is above 10000 nM. In addition, the “GPR17 Fold Induction” value in series [1] worked out at 1.26.

Consider `Cn1cc(-c2ccc3c(N4CCN(c5ncc(Sc6ccccc6)cn5)CC4)cnn3c2)cn1` [Compound 188, 6-(1-methyl-1H-pyrazol-4-yl)-3-(4-(5-(phenylthio)pyrimidin-2-yl)piperazin-1-yl)pyrazolo[1,5-a]pyridine], for which the IC50 at PDGFRα came to 5100 nM. The “GPR17 Fold Induction” value in series [1] is 6.03.

Take `CCCCCc1cnc(N2CCN(c3cnn4cc(-c5cnn(C)c5)ccc34)CC2)nc1` [Compound 190]: the concentration for half-maximal inhibition (IC50) at PDGFRα was 543 nM. For the same compound, in series [1], the “GPR17 Fold Induction” value is given as 6.05.

Consider `Cn1cc(-c2ccc3c(N4CCN(c5ncc(Cn6ccc7ccccc76)cn5)CC4)cnn3c2)cn1` [Compound 191, 3-(4-(5-((1H-indol-1-yl)methyl)pyrimidin-2-yl)piperazin-1-yl)-6-(1-methyl-1H-pyrazol-4-yl)pyrazolo[1,5-a]pyridine], for which, at PDGFRα, the half-inhibitory concentration (IC50) stood at 287 nM. Also, the “GPR17 Fold Induction” value in series [1] was found to be 23.57.

Consider `Cn1cc(-c2ccc3c(N4CCN(c5ncc([C@H](O)[C@@H]6CCCOC6)cn5)CC4)cnn3c2)cn1` [Compound 192, (R)-(2-(4-(6-(1-methyl-1H-pyrazol-4-yl)pyrazolo[1,5-a]pyridin-3-yl)piperazin-1-yl)pyrimidin-5-yl)((R)-tetrahydro-2H-pyran-3-yl)methanol], for which, at PDGFRα, the IC50 is 31 nM. Also, the “GPR17 Fold Induction” value in series [1] turned out to be 14.76.

For the compound `Cn1cc(-c2ccc3c(N4CCN(c5ncc([C@@H](O)[C@@H]6CCCOC6)cn5)CC4)cnn3c2)cn1` [Compound 193, (S)-(2-(4-(6-(1-methyl-1H-pyrazol-4-yl)pyrazolo[1,5-a]pyridin-3-yl)piperazin-1-yl)pyrimidin-5-yl)((R)-tetrahydro-2H-pyran-3-yl)methanol], the IC50 at PDGFRα stood at 69.1 nM. Also, the “GPR17 Fold Induction” value in series [1] was found to be 11.72.

As to `Cn1cc(-c2ccc3c(N4CCN(c5ncc(C(O)C6CCCCO6)cn5)CC4)cnn3c2)cn1` (stereo not shown) [Compound 194, (2-(4-(6-(1-methyl-1H-pyrazol-4-yl)pyrazolo[1,5-a]pyridin-3-yl)piperazin-1-yl)pyrimidin-5-yl)(tetrahydro-2H-pyran-2-yl)methanol], the IC50 on PDGFRα was determined as 195 nM. The “GPR17 Fold Induction” value in series [1] came out at 8.67.

As for `Cn1cc(-c2ccc3c(N4CCN(C(=O)OCc5ncc(Cl)s5)CC4)cnn3c2)cn1` [Compound 195, (5-chlorothiazol-2-yl)methyl 4-(6-(1-methyl-1H-pyrazol-4-yl)pyrazolo[1,5-a]pyridin-3-yl)piperazine-1-carboxylate], the IC50 on PDGFRα came out at 1230 nM. Moreover, in series [1], the “GPR17 Fold Induction” value came out at 5.57.

On to `Cn1cc(-c2ccc3c(N4CCN(C(=O)OCc5ccc(Cl)s5)CC4)cnn3c2)cn1` [Compound 196, (5-chlorothiophen-2-yl)methyl 4-(6-(1-methyl-1H-pyrazol-4-yl)pyrazolo[1,5-a]pyridin-3-yl)piperazine-1-carboxylate], for which the IC50 at PDGFRα was 522 nM. Besides, the “GPR17 Fold Induction” value in series [1] is 5.65.

In the case of `Cn1cc(-c2ccc3c(N4CCN(C(=O)OCc5csc(Cl)c5)CC4)cnn3c2)cn1` [Compound 197, (5-chlorothiophen-3-yl)methyl 4-(6-(1-methyl-1H-pyrazol-4-yl)pyrazolo[1,5-a]pyridin-3-yl)piperazine-1-carboxylate], at PDGFRα, the IC50 came out at 65.3 nM. Further, the “GPR17 Fold Induction” value in series [1] came to 12.24.

As to `Cc1cnc(COC(=O)N2CCN(c3cnn4cc(-c5cnn(C)c5)ccc34)CC2)o1` [Compound 199, (5-methyloxazol-2-yl)methyl 4-(6-(1-methyl-1H-pyrazol-4-yl)pyrazolo[1,5-a]pyridin-3-yl)piperazine-1-carboxylate], the IC50 at PDGFRα was found to be 1240 nM. The “GPR17 Fold Induction” value in series [1] is 4.08.
